The source of these data is US6440974B2, “Compounds useful for inhibition of farnesyl protein transferase” (Schering Corporation, priority 1997, dated 2002).

The target of data set [1] is farnesyl protein transferase (Homo sapiens, UniProt P49354+P49356). Kind of data set: FPT IC50 (inhibition of farnesyl protein transferase, in vitro enzyme assay). It is filed as biochemical. How it is done: (§1) FPT IC50 (inhibition of famesyl protein transferase, in vitro enzyme assay) and COS Cell IC50 (Cell-Based Assay) were determined following the assay procedures described in WO 95/10516, published Apr. 20, 1995. GGPIT IC50 (inhibition of geranylgeranyl protein transferase, in vitro enzyme assay), Cell Mat Assay, and anti-tumor activity (in vivo anti-tumor studies) could be determined by the assay procedures described in WO 95/10516. The disclosure of WO 95/10516 is incorporated herein by reference thereto.

For the next data set, the system named is Human tumor cells. Kind of data set: Soft Agar Assay (anchorage-independent growth). It is filed as cell-based. The method, then: Anchorage-independent growth is a characteristic of tumorigenic cell lines. Human tumor cells can be suspended in growth medium containing 0.3% agarose and an indicated concentration of a farnesyl transferase inhibitor. The solution can be overlayed onto growth medium solidified with 0.6% agarose containing the same concentration of farnesyl transferase inhibitor as the top layer. After the top layer is solidified, plates can be incubated for 10-16 days at 37° C. under 5% CO2 to allow colony outgrowth. After incubation, the colonies can be stained by overlaying the agar with a solution of MTT (3-[4,5-dimethylthiazol-2-yl]-2,5-diphenyltetrazolium bromide, Thiazolyl blue) (1 mg/mL in PBS). Colonies can be counted and the IC50's can be determined.

The test system of the next data set is COS Cell. Put plainly: COS Cell IC50 (Cell-Based Assay). The conditions noted are these: for pIC50: cell-based assay. The method, then: as §1

Each structure is given as a SMILES string. pIC50: −log10 of the molar value.

For orientation: pIC50 means the negative decadic logarithm of the IC50, by convention in mol/L. The compound `O=C(CC1CCOCC1)N1CCN([C@@H]2c3ccc(Cl)cc3CCc3cc(Br)cnc32)CC1` [Example 33] showed a pIC50 in data set [1] of 7.35.
As usually defined, the melting point is the temperature, or range, at which the solid turns liquid. Regarding `O=C(CC1CCOCC1)N1CCC([C@@H]2c3c(Br)cc(Cl)cc3CCc3cc(Br)c[n+]([O-])c32)CC1` [Example 40], the melting point is 141 to 151 °C (dec.). The same compound gave a pIC50 in the data set on Human tumor cells of 8.10. Moreover, the “COS Cell, percent at given concentration (printed in the COS Cell IC50 column)” value with COS Cell (@ 10 nM) is 100% @ 10. The pIC50 in data set [1] is 8.66.
Turning to `O=C(CC1CCCO1)N1CCC(C2c3ncc(Br)cc3CCc3cc(Cl)cc(Br)c32)CC1` (centres unmarked) [Example 7], the melting point is 107 to 115 °C (dec.). The compound further had a pIC50 in data set [1] of 7.38.
With `O=C(CN1CC[S+]([O-])CC1)N1CCN(C2c3ccc(Cl)c(Br)c3CCc3cc(Br)cnc32)CC1` (centres unmarked) [Example 39], the pIC50 with COS Cell (COS) is 7.17; in data set [1], 8.33.
`O=C(CC1=CCOCC1)N1CCC(C2c3ncc(Br)cc3CCc3cc(Cl)cc(Br)c32)CC1` (centres unmarked) [Example 3]: the melting point lay in the range of 110.3 to 113.9 °C. Further, in data set [1], the pIC50 is 8.21.
Taken in the same sequence, the figures for `O=C(CC1COCCO1)N1CCC(C2c3ncc(Br)cc3CCc3cc(Cl)cc(Br)c32)CC1` (centres unmarked) [Example 6] were 111 to 124 °C (dec.) and 7.64.
With `O=C(CN1CCSCC1)N1CCC([C@H]2c3ncc(Br)cc3CCc3cc(Cl)cc(Br)c32)CC1` [Example 37], the pIC50 in the data set with COS Cell (COS) was greater than 8.00; in data set [1], 8.31.
Consider `O=C(CC1CCCCO1)N1CCC(C2c3ncc(Br)cc3CCc3cc(Cl)cc(Br)c32)CC1` (centres unmarked) [Example 8], for which the melting point was 116 to 122 °C (dec.). This compound also showed a pIC50 in the data set with COS Cell (COS) of 7.17. Further, the pIC50 in data set [1] was 8.70.
Compound `O=C(CN1CCOCC1)N1CCC([C@H]2c3ncc(Br)cc3CCc3cc(Cl)cc(Br)c32)CC1` [Example 36] gave a pIC50 in data set [1] of 8.51.
On to `O=C(C1CC2CCC1CO2)N1CCC(C2c3ncc(Br)cc3CCc3cc(Cl)cc(Br)c32)CC1` (single isomer, unassigned) [Example 29], for which the melting point is 152 to 164 °C (dec.). In the data set with COS Cell, this compound showed a pIC50 of 7.52. In data set [1], this compound had a pIC50 of 8.17.
As for `O=C(C1CC2CCC1CO2)N1CCC(C2c3ncc(Br)cc3CCc3cc(Cl)cc(Br)c32)CC1` (single isomer, unassigned) [Example 30], the melting point was 151 to 159 °C (dec.). The compound also gave a pIC50 with COS Cell of 7.12. In addition, the pIC50 in data set [1] is 8.12.
For `O=C(CC1CCOCC1)N1CCC([C@H]2c3ncc(Br)cc3CCc3cc(Cl)cc(Br)c32)CC1` [Example 1], the melting point was in the range of 83.2 to 88.7 °C.
